From ChEMBL document CHEMBL2311454, “Discovery and evaluation of novel inhibitors of mycobacterium protein tyrosine phosphatase B from the 6-Hydroxy-benzofuran-5-carboxylic acid scaffold” (J Med Chem, 2013)

Columns and labels:
[1] = target: T1, Tyrosine-protein phosphatase non-receptor type 22 (Homo sapiens, UniProt Q9Y2R2); experiment: Inhibition of LYP (unknown origin) expressed in Escherichia coli using pNPP substrate after 5 mins by spectrophotometric analysis
T1 sequence (Q9Y2R2 whole entry): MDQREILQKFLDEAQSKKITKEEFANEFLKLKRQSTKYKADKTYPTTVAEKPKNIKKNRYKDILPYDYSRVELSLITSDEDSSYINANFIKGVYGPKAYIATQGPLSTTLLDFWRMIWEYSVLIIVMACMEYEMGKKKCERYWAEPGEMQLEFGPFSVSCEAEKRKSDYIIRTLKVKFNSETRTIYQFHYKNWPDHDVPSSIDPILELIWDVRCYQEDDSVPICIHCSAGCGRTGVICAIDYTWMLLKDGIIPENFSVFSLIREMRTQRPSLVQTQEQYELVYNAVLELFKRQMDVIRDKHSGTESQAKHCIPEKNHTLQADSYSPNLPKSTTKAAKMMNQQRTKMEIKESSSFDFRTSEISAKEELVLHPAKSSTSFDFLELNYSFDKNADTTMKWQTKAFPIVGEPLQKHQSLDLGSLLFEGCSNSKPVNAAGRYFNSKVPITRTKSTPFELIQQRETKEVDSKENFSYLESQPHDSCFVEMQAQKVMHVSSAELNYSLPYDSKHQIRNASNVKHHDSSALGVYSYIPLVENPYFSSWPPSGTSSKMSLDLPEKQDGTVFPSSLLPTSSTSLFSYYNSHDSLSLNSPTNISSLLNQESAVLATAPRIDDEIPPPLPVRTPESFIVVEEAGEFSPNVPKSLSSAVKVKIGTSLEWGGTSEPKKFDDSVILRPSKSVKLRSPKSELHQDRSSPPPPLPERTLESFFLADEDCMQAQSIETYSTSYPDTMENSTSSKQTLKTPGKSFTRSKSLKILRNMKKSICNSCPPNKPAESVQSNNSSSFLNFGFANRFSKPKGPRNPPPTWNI

[2] = target: T2, Tyrosine-protein phosphatase non-receptor type 2 (Homo sapiens, UniProt P17706); experiment: Inhibition of TCPTP (unknown origin) expressed in Escherichia coli using pNPP substrate after 5 mins by spectrophotometric analysis
T2 sequence (P17706 whole entry): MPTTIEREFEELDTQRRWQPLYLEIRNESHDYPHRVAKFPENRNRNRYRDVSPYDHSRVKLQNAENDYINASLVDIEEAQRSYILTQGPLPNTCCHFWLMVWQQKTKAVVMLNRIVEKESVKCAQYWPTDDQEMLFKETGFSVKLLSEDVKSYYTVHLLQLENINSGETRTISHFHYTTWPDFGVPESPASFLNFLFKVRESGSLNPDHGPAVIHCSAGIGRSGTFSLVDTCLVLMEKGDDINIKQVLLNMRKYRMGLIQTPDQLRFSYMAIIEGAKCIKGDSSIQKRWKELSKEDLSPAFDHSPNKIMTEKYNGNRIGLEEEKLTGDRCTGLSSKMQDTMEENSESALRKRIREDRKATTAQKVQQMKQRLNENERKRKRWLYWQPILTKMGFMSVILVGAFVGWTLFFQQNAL

[3] = target: Tyrosine-protein phosphatase non-receptor type 6 (Homo sapiens, UniProt P29350); experiment: Inhibition of SHP1 (unknown origin) expressed in Escherichia coli using pNPP substrate after 5 mins by spectrophotometric analysis
Tyrosine-protein phosphatase non-receptor type 6, sequence (P29350 whole entry): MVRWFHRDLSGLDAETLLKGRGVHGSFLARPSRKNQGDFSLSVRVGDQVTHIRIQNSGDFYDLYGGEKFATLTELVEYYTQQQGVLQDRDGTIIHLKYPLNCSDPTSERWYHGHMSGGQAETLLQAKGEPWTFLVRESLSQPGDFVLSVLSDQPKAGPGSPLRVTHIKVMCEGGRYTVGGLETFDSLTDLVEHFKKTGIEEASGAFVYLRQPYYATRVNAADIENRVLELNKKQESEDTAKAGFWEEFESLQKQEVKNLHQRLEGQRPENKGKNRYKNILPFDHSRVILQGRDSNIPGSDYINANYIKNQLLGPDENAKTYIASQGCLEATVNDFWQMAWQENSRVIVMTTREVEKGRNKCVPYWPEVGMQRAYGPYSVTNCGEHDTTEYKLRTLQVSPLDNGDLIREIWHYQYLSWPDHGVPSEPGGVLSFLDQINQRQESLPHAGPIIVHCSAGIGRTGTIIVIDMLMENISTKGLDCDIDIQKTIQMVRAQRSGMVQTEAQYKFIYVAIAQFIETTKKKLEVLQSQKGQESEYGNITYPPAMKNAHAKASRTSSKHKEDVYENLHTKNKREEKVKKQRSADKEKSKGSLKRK

[4] = target: Dual specificity protein phosphatase 3 (Homo sapiens, UniProt P51452); experiment: Inhibition of VHR (unknown origin) expressed in Escherichia coli using pNPP substrate after 5 mins by spectrophotometric analysis
Dual specificity protein phosphatase 3, sequence (P51452 whole entry): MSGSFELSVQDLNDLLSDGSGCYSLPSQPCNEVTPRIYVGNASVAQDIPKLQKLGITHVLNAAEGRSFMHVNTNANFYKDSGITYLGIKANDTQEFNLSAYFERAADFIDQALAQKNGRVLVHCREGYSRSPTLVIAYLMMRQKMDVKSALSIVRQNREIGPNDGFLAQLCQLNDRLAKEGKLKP

[5] = target: T3, Tyrosine-protein phosphatase non-receptor type 11 (Homo sapiens, UniProt Q06124); experiment: Inhibition of SHP2 (unknown origin) expressed in Escherichia coli using pNPP substrate after 5 mins by spectrophotometric analysis
T3 sequence (Q06124 whole entry): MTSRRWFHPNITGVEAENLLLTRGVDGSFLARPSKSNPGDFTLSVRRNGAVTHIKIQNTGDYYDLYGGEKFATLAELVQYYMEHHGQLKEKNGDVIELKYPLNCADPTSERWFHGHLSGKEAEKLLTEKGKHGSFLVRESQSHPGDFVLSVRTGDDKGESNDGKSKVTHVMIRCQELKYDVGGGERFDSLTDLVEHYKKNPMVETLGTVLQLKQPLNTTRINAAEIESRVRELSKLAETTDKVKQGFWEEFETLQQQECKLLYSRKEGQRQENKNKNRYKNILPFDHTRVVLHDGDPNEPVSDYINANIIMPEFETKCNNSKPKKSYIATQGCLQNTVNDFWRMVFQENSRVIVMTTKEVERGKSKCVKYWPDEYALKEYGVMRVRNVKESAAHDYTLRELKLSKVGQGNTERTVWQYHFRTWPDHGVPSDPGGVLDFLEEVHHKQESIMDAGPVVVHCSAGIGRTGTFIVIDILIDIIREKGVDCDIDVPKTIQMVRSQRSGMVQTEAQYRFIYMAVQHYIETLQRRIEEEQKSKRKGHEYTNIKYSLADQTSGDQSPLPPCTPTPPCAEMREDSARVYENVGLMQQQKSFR

[6] = target: T4, Tyrosine-protein phosphatase non-receptor type 9 (Homo sapiens, UniProt P43378); experiment: Inhibition of PTPMEG2 (unknown origin) expressed in Escherichia coli using pNPP substrate after 5 mins by spectrophotometric analysis
T4 sequence (P43378 whole entry): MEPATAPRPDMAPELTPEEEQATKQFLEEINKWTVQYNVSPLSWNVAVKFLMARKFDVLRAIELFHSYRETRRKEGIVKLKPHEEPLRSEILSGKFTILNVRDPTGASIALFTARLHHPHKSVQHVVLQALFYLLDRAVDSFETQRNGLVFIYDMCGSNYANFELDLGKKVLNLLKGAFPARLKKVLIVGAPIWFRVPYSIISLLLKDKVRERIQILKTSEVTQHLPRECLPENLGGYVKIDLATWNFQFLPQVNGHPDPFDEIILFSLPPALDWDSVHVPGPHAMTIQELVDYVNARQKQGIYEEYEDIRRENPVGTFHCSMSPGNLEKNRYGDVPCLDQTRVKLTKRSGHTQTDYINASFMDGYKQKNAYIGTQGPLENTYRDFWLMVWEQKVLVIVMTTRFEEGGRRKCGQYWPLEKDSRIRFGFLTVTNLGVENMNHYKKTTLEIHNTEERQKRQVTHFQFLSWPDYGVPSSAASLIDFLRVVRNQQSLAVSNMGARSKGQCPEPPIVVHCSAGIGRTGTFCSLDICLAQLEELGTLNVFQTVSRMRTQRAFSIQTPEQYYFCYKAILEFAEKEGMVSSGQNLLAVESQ

IC50 [5] | SMILES | IC50 [1] | IC50 [2] | IC50 [3] | IC50 [4] | IC50 [6]
4.5 µM | O=C(O)c1cc2c(CCc3cccc(C(F)(F)F)c3)c(-c3ccccc3)oc2cc1O | 3.5 µM | 10 µM |  | 6.2 µM | 8.6 µM
3.6 µM | O=C(O)c1cc2c(CCc3ccc(Oc4ccccc4)cc3)c(-c3ccccc3)oc2cc1O | 2.2 µM | 11.8 µM | 3.7 µM | 6.3 µM | 7.7 µM
 | O=C(O)c1cc2c(CCc3ccc(OC(F)(F)F)cc3)c(-c3ccccc3)oc2cc1O | 4.1 µM | 8.9 µM | 7.1 µM | 6.7 µM | 8.4 µM
31 µM | C#Cc1c(-c2ccccc2)oc2cc(O)c(C(=O)O)cc12 | 50 µM | > 50 µM | > 50 µM | > 50 µM | 85 µM
10.9 µM | O=C(O)c1cc2c(CCc3cccc(F)c3)c(-c3ccccc3)oc2cc1O | 12.4 µM | 33 µM | 11.5 µM | 22 µM | 110 µM

SMILES | IC50 [5] | IC50 [1] | IC50 [2] | IC50 [3] | IC50 [4] | IC50 [6]
O=C(O)c1cc2c(C#CCO)c(-c3ccccc3)oc2cc1O | > 100 µM | > 100 µM | > 100 µM | > 100 µM | > 100 µM | > 100 µM
C[C@]12CCC(=O)C=C1CC[C@@H]1[C@@H]2CC[C@@]2(C)[C@H]1CC[C@]2(O)C#Cc1c(-c2ccccc2)oc2cc(O)c(C(=O)O)cc12 | 30 µM | 12.2 µM | > 50 µM | > 100 µM | > 100 µM | > 100 µM
O=C(O)c1cc2c(/C=C\c3cc(F)cc(F)c3)c(-c3ccccc3)oc2cc1O | 5 µM | 3.7 µM | 9.5 µM |  | 8.6 µM | 9.2 µM
